The record followed here is ChEMBL document CHEMBL1122434, “Antitumor amino-substituted pyrido[3',4':4,5]pyrrolo[2,3-g]isoquinolines and pyrido[4,3-b]carbazole derivatives: synthesis and evaluation of compounds resulting from new side chain and heterocycle modifications” (J Med Chem, 1983).

For data set [1], the system named is L1210. Put plainly: Cytotoxicity against L1210 tumor cell line, activity is expressed as K (inverse value of drug concentration). Type of data set: functional, cell-based. As to conditions: Mus musculus.
Data set [2] has as its system L1210. Put plainly: Antitumor activity against L1210 leukemia cells measured as range of death at 2.5 mg/kg; value may range from 12 to 19. Type of data set: functional, Mus musculus.
Data set [3] relates to L1210. As to the kind of experiment: In vitro cytotoxicity against L1210 cell line as concentration required for 50% inhibition of cell growth. It is filed as functional. As to conditions: Mus musculus, read-out: ID50 (the source's name).
For data set [4], the system named is L1210. As to the kind of experiment: Antitumor activity against L1210 leukemia cells measured as Median survival time at 2.5 mg/kg. Type of data set: functional, Mus musculus.
The nature of data set [5]: Acute toxicity in mice (LD0) after i.p. administration (highest nontoxic dose). Type of data set: organism-based. The settings on record: mouse, in vivo, ip; read-out: LD0.
Data set [6] concerns Mus musculus. Put plainly: Acute toxicity in mice (LD100) after i.p. administration. It is filed as organism-based. The settings on record: in vivo, ip.
The test system of data set [7] is L1210. As to the kind of experiment: Antitumor activity against L1210 leukemia cells measured as Median survival time at 25 mg/kg. It is filed as functional, Mus musculus.
For data set [8], the system named is L1210. Put plainly: Antitumor activity against L1210 leukemia cells measured as range of death at 25 mg/kg; value may range from 14 to 19. As to conditions: Mus musculus.
For data set [9], the system named is L1210. As to the kind of experiment: Antitumor activity against L1210 leukemia cells measured as range of death at 2.5 mg/kg; value may range from 14 to 19. Type of data set: functional, Mus musculus.
For data set [10], the system named is L1210. Put plainly: Antitumor activity against L1210 leukemia cells measured as Median survival time at 10 mg/kg. Type of data set: functional, Mus musculus.
The test system of data set [11] is L1210. As to the kind of experiment: Antitumor activity against L1210 leukemia cells measured as percent increase in life span (% ILS) at 10 mg/kg. It is filed as functional. The settings on record: Mus musculus.
In data set [12] the test system is L1210. Put plainly: Antitumor activity against L1210 leukemia cells measured as range of death at 10 mg/kg; value may range from 8 to 20. Type of data set: functional, Mus musculus.
The subject of data set [13] is L1210. As to the kind of experiment: Antitumor activity against L1210 leukemia cells measured as Median survival time at 12.5 mg/kg. It is filed as functional, Mus musculus.
Data set [14] deals with L1210. Put plainly: Antitumor activity against L1210 leukemia cells measured as range of death at 12.5 mg/kg; value may range from 12 to 27. It is filed as functional, Mus musculus.
The test system of data set [15] is L1210. As to the kind of experiment: Antitumor activity against L1210 leukemia cells measured as Median survival time at 20 mg/kg. It is filed as functional, Mus musculus.
Data set [16] relates to L1210. As to the kind of experiment: Antitumor activity against L1210 leukemia cells measured as range of death at 20 mg/kg; value may range from 15 to 19. Type of data set: functional, Mus musculus.
Data set [17] concerns L1210. As to the kind of experiment: Antitumor activity against L1210 leukemia cells measured as Median survival time at 15 mg/kg. Type of data set: functional, Mus musculus.
Data set [18] concerns L1210. Put plainly: Antitumor activity against L1210 leukemia cells measured as range of death at 15 mg/kg; value may range from 19 to 35. Type of data set: functional, Mus musculus.
For data set [19], the system named is L1210. As to the kind of experiment: Antitumor activity against L1210 leukemia cells measured as range of death at 15 mg/kg; value may range from 12 to 19. Type of data set: functional, Mus musculus.
In data set [20] the test system is L1210. As to the kind of experiment: Antitumor activity against L1210 leukemia cells measured as range of death at 20 mg/kg; value may range from 14 to 17. Type of data set: functional, Mus musculus.
Data set [21] concerns L1210. As to the kind of experiment: Antitumor activity against L1210 leukemia cells measured as range of death at 20 mg/kg; value may range from 14 to 25. It is filed as functional, Mus musculus.
Data set [22] has as its system L1210. As to the kind of experiment: Antitumor activity against L1210 leukemia cells measured as range of death at 20 mg/kg; value may range from 9 to 12. Type of data set: functional, Mus musculus.

As to `CCNCCCNc1nccc2c(C)c3c(c(C)c12)c1cc(O)ccc1n3C`, the K in data set [1] worked out at 50 µM⁻¹. The molecule further displayed a Range of death in data set [2] of 19 days. Besides, the IC50 in data set [3] is 20 nM. In data set [4], this molecule registered an MST of 14.5 days. In data set [5], the MTD was determined as 10 mg/kg. This molecule also registered an LD100 in data set [6] of 25 mg/kg.
Regarding `Cc1c2ccnc(NCCCN(CCO)CCO)c2cc2c3c[nH]ccc-3nc12`, the K in data set [1] was 1.7 µM⁻¹. In addition, in [3], the IC50 was 600 nM. Also, the MST in [7] came out at 15.5 days. In data set [5], the MTD stood at 30 mg/kg. Also, the LD100 in data set [6] is 100 mg/kg. The molecule also showed a Range of death in data set [8] of 19 days.
For the molecule `CCN(CC)CCCNc1nccc2c(C)c3[nH]c4ccc(O)cc4c3cc12`, in data set [1], the K is 50 µM⁻¹. The Range of death in data set [9] is 19 days. Further, the IC50 in [3] worked out at 20 nM. This molecule also showed an MST in [4] of 16.4 days. In data set [5], the MTD was found to be 2.5 mg/kg. This molecule also showed an LD100 in data set [6] of 7 mg/kg.
In the case of `Cc1c2c(NCCCN(C)C)nccc2c(C)c2c1c1cc(O)ccc1n2C`, the MST in data set [10] was 16.3 days. This molecule also gave a K in [1] of 33 µM⁻¹. Moreover, the IC50 in [3] is 30 nM. The MTD in [5] was 10 mg/kg. Also, the LD100 in data set [6] worked out at 50 mg/kg. In addition, the ILS at 10 mg/kg in data set [11] is 68%. Moreover, the Range of death in data set [12] turned out to be 20 days.
`CCN(CC)CC(O)CNc1nccc2c(C)c3[nH]c4ccncc4c3cc12` (configuration not stated) came in with a K in [1] of 20 µM⁻¹. Also, in data set [3], the IC50 was found to be 50 nM. Also, the MST in data set [13] came out at 16.3 days. In data set [14], this molecule yielded a Range of death of 27 days. The MTD in data set [5] stood at 25 mg/kg. The LD100 in [6] stood at 40 mg/kg.
With `CCN(CCCN)CCCNc1nccc2c(C)c3[nH]c4ccncc4c3cc12`, the K in [1] was 5 µM⁻¹. For the same molecule, the IC50 in data set [3] was determined as 200 nM. The MST in data set [15] was 17 days. The same molecule displayed a Range of death in data set [16] of 19 days. The MTD in data set [5] was determined as 20 mg/kg. In data set [6], this molecule came in with an LD100 of 40 mg/kg.
For the molecule `CCN(CC)CCCNc1nccc2c(C)c3[nH]c4ccc(OC)cc4c3c(C)c12` [RETELLIPTINE], the K in data set [1] worked out at 30 µM⁻¹. In [3], the IC50 is 30 nM. The molecule further gave an MST in [17] of 29.5 days. The molecule also came in with a Range of death in data set [18] of 35 days. Besides, in data set [5], the MTD was 15 mg/kg. Also, the LD100 in data set [6] was found to be 60 mg/kg.
Consider `CCN(CC)CCCNc1nccc2c(C)c3[nH]c4ccc(OC)cc4c3cc12`, for which the K in data set [1] worked out at 0.2 µM⁻¹. The IC50 in [3] is 5000 nM. In [17], this molecule registered an MST of 14.3 days. In addition, the Range of death in data set [19] is 19 days. The MTD in [5] is 20 mg/kg. Also, the LD100 in data set [6] turned out to be 40 mg/kg.
Consider `Cc1c2ccnc(NCC(O)CO)c2cc2c3c[nH]ccc-3nc12` (configuration not stated), for which the K in data set [1] was found to be 4 µM⁻¹. In addition, the IC50 in data set [3] stood at 250 nM. Also, in [20], the Range of death was determined as 17 days. For the same molecule, in [15], the MST amounted to 16 days. Further, the MTD in data set [5] turned out to be 40 mg/kg. In addition, the LD100 in data set [6] came to 60 mg/kg.
`CCN(CC)CCCNc1nccc2c(C)c3[nH]c4ccncc4c3cc12` [PAZELLIPTINE] registered a K in [1] of 50 µM⁻¹. Moreover, in data set [21], the Range of death is 25 days. Also, in [3], the IC50 was 20 nM. Moreover, the MST in data set [15] stood at 20.5 days. Besides, the MTD in [5] is 25 mg/kg. In addition, the LD100 in [6] worked out at 30 mg/kg.
With `CCN(CC)CCNc1nccc2c(C)c3c(cc12)c1cc(OC)ccc1n3C`, in data set [1], the K amounted to 0.5 µM⁻¹. Further, the IC50 in [3] turned out to be 2000 nM. Besides, in data set [15], the MST was 11 days. Moreover, the MTD in data set [5] was 20 mg/kg. The same molecule showed an LD100 in [6] of 30 mg/kg. For the same molecule, in data set [22], the Range of death was 12 days.

In general, ILS refers to how much longer treated animals lived than controls.
